Among the data in patent publication US10399932B2, “Inhibitors of indoleamine-2,3-dioxygenase for the treatment of cancer” (BRISTOL-MYERS SQUIBB COMPANY, priority 2015, dated 2019) are IC50 values, retold here.

Chain of human IDO1 (P14902 whole entry): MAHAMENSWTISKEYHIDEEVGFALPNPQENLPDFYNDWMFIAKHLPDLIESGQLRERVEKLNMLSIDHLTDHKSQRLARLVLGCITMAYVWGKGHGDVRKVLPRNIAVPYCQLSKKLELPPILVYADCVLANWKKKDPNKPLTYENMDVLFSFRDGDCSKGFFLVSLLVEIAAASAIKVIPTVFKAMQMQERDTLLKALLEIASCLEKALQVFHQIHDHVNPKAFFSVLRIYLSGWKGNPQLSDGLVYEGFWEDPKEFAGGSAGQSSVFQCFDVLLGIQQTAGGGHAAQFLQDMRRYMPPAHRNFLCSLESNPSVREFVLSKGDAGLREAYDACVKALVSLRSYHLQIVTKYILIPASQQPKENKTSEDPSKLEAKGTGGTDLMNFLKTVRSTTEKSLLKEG

This assay concerns the target human IDO1 (Homo sapiens, UniProt P14902). The experiment in a line: Assessment of human IDO-1 inhibitory activity in Hela cells (Interferon-gamma activated, Ehrlich reagent, absorbance at 490 nm). In kind it is cell-based. The arrangement: endogenous in cells; host or cells: HeLa cells stimulated with interferon-gamma. The conditions noted are these: 18 hours. A digest of the protocol: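 HeLa cells were preincubated with compound for 1 h at 37 °C, then stimulated with human IFN-γ (10 ng/ml final) or murine IFN-γ (5 ng/ml final) for 18 h. Kynurenine was read after TCA (3% final, 50 °C for 30 min) and Ehrlich reagent at A490. For IC50, unstimulated wells were set as 100% inhibition and IFN-γ alone as 0%.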
What is called IC50 is the concentration at which inhibition is half-maximal. Lower therefore signals higher potency. Take `COCCN(c1ccc(C(COC)CC(=O)O)cc1Nc1ccc(C#N)cc1)C1CCOCC1` (single isomer, unassigned) [Example 259, 3-(3-((4-cyanophenyl)amino)-4-((2-methoxyethyl)(tetrahydro-2H-pyran-4-yl)amino)phenyl)-4-methoxybutanoic acid]: the IC50 was < 50 nM. Turning to `CCCOc1ncc(Nc2cc(C(C)CC(=O)O)ccc2N(CC)C2CCOCC2)cn1` (single isomer, unassigned) [Example 634, 3-(4-(ethyl(tetrahydro-2H-pyran-4-yl)amino)-3-((2-propoxypyrimidin-5-yl)amino)phenyl)butanoic acid], the IC50 was < 50 nM.

For `COCC(CC(=O)O)c1ccc(N(C)C2CCOCC2)c(Nc2ccc(C#N)cc2F)c1` (single isomer, unassigned) [Example 883, 3-(3-((4-cyano-2-fluorophenyl)amino)-4-(methyl(tetrahydro-2H-pyran-4-yl)amino)phenyl)-4-methoxybutanoic acid], the half-inhibitory concentration (IC50) is < 50 nM.

For the molecule `CCOc1ncc(Nc2cc(C(CC)CC(=O)O)ccc2N(CC)C2CCOC2)cn1` (single isomer, unassigned) [947 D2], the half-inhibitory concentration (IC50) was < 50 nM. Then `COCC(CC(=O)O)c1ccc(N(C)C2CCOCC2)c(Nc2ccc(C#N)c(F)c2)c1` (single isomer, unassigned) [Example 882, 3-(3-((4-cyano-3-fluorophenyl)amino)-4-(methyl(tetrahydro-2H-pyran-4-yl)amino)phenyl)-4-methoxybutanoic acid], with < 50 nM; and `CCN(c1cc(F)c([C@@H](COC)CC(=O)O)cc1Nc1ccc(Cl)cc1)C1CCOCC1` (stereo in doubt) [Example 851, 3-(5-((4-chlorophenyl)amino)-4-(ethyl(tetrahydro-2H-pyran-4-yl)amino)-2-fluorophenyl)-4-methoxybutanoic acid], with < 5 nM. As for `CCC(CC(=O)O)c1ccc(N(C)C2CCOCC2)c(Nc2ccc(Cl)cc2)c1` (single isomer, unassigned) [Example 937, 3-(3-((4-chlorophenyl)amino)-4-(methyl(tetrahydro-2H-pyran-4-yl)amino)phenyl) pentanoic acid], the figure is < 5 nM; as for `CCOc1ncc(Nc2cc(C(COC)CC(=O)O)ccc2N(C)C2CCOCC2)cn1` (single isomer, unassigned) [Example 885, 3-(3-((2-ethoxypyrimidin-5-yl)amino)-4-(methyl (tetrahydro-2H-pyran-4-yl)amino)phenyl)-4-methoxybutanoic acid], > 50 nM.
